Laboratory results: PubChem BioAssay (NCI)
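The concentration for 50% growth inhibition is given as GI50. TGI denotes the concentration required for complete inhibition of growth.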

Legend:
Assay in all cases: NCI-60 cell line screen, 384-well format
NCI-H226 lung = test system: NCI-H226 lung
NCI-H23 lung = test system: NCI-H23 lung
NCI-H322M lung = test system: NCI-H322M lung
NCI-H460 NSCLC = test system: NCI-H460 NSCLC
NCI-H522 lung = test system: NCI-H522 lung
NCI/ADR-RES ovarian = test system: NCI/ADR-RES ovarian
OVCAR-3 ovarian = test system: OVCAR-3 ovarian
OVCAR-4 ovarian = test system: OVCAR-4 ovarian
OVCAR-5 ovarian = test system: OVCAR-5 ovarian
OVCAR-8 ovarian = test system: OVCAR-8 ovarian
PC-3 prostate = test system: PC-3 prostate
RPMI-8226 leukemia = test system: RPMI-8226 leukemia
RXF 393 renal = test system: RXF 393 renal
SF-268 CNS = test system: SF-268 CNS
SF-295 CNS = test system: SF-295 CNS
SF-539 CNS = test system: SF-539 CNS
SK-MEL-2 melanoma = test system: SK-MEL-2 melanoma
SK-MEL-28 melanoma = test system: SK-MEL-28 melanoma
SK-MEL-5 melanoma = test system: SK-MEL-5 melanoma
SK-OV-3 ovarian = test system: SK-OV-3 ovarian
SN12C renal = test system: SN12C renal
SW-620 colon = test system: SW-620 colon
T-47D breast = test system: T-47D breast
U251 glioblastoma = test system: U251 glioblastoma
UACC-257 melanoma = test system: UACC-257 melanoma
UACC-62 melanoma = test system: UACC-62 melanoma
UO-31 renal = test system: UO-31 renal

CS(=O)(=O)Nc1cc(-c2ccc3ncnc(Nc4ccc(F)c(Cl)c4)c3c2)cnc1Cl
TGI (NCI-H226 lung): 13400 nM | GI50 (NCI-H23 lung): 1150 nM | TGI (NCI-H23 lung): 4030 nM | GI50 (NCI-H322M lung): 1190 nM | TGI (NCI-H322M lung): 3360 nM | GI50 (NCI-H460 NSCLC): 1010 nM | TGI (NCI-H460 NSCLC): 3840 nM | GI50 (NCI-H522 lung): 547 nM | TGI (NCI-H522 lung): 2360 nM | GI50 (NCI/ADR-RES ovarian): 3600 nM | TGI (NCI/ADR-RES ovarian): 40300 nM | GI50 (OVCAR-3 ovarian): 457 nM | TGI (OVCAR-3 ovarian): 1850 nM | GI50 (OVCAR-4 ovarian): 1220 nM | TGI (OVCAR-4 ovarian): 4450 nM | GI50 (OVCAR-5 ovarian): 939 nM | TGI (OVCAR-5 ovarian): 4550 nM | GI50 (OVCAR-8 ovarian): 1910 nM | TGI (OVCAR-8 ovarian): 10100 nM | GI50 (PC-3 prostate): 872 nM | TGI (PC-3 prostate): 2280 nM | GI50 (RPMI-8226 leukemia): 370 nM | TGI (RPMI-8226 leukemia): 1580 nM | GI50 (RXF 393 renal): 450 nM | TGI (RXF 393 renal): 1960 nM | GI50 (SF-268 CNS): 1420 nM | TGI (SF-268 CNS): 2900 nM | GI50 (SF-295 CNS): 1290 nM | TGI (SF-295 CNS): 2930 nM | GI50 (SF-539 CNS): 1480 nM | TGI (SF-539 CNS): 5050 nM | GI50 (SK-MEL-2 melanoma): 1200 nM | TGI (SK-MEL-2 melanoma): 2550 nM | GI50 (SK-MEL-28 melanoma): 728 nM | TGI (SK-MEL-28 melanoma): 8860 nM | GI50 (SK-MEL-5 melanoma): 1030 nM | TGI (SK-MEL-5 melanoma): 2220 nM | GI50 (SK-OV-3 ovarian): 635 nM | TGI (SK-OV-3 ovarian): 3320 nM | GI50 (SN12C renal): 524 nM | TGI (SN12C renal): 5250 nM | GI50 (SW-620 colon): 1650 nM | TGI (SW-620 colon): 3840 nM | GI50 (T-47D breast): 85.5 nM | TGI (T-47D breast): 548 nM | GI50 (U251 glioblastoma): 691 nM | TGI (U251 glioblastoma): 2110 nM | GI50 (UACC-257 melanoma): 1360 nM | TGI (UACC-257 melanoma): 5540 nM | GI50 (UACC-62 melanoma): 1040 nM | TGI (UACC-62 melanoma): 2550 nM | GI50 (UO-31 renal): 639 nM | TGI (UO-31 renal): 2420 nM
